We go through seven compounds from patent US11505573B2, “Peptide macrocycles against Acinetobacter baumannii” (Hoffmann-La Roche Inc., priority 2018, dated 2022).

This experiment deals with A. baumannii ATCC 17978. Nature of the experiment: Antimicrobial susceptibility testing: 50% growth inhibitory concentration (IC50) determination in Iso-Sensitest broth. The settings on record: Acinetobacter baumannii; A. baumannii strain ATCC17978; Iso-Sensitest medium; OD 600 nm over 16 h; 35±2° C.; read-out: IC50 ATCC17978 (50% growth inhibition concentration). It is filed as cell-based. As to the method:
Antimicrobial Susceptibility Testing: 50% Growth Inhibitory Concentration (IC50) Determination The in vitro antimicrobial activity of the compounds was alternatively determined according to the following procedure: The assay used a 10-points Iso-Sensitest broth medium to measure quantitatively the in vitro activity of the compounds against A. baumannii ATCC 17978. Stock compounds in DMSO were serially twofold diluted (e.g. range from 10 to 0.02 μM final concentration) in 384 wells microtiter plates and inoculated with 49 μl the bacterial suspension in Iso-Sensitest medium to have a final cell concentration of ˜5×10^(5) CFU/ml in a final volume/well of […] Microtiter plates were incubated at 35±2° C. Bacterial cell growth was determined by the measurement of optical density at λ=600 nm each 20 minutes over a time course of 16 h. Growth inhibition was calculated during the logarithmic growth of the bacterial cells by determination of the concentration inhibiting 50% (IC50) and 90% (IC90) of the growth. Table 1 provides the 50% growth inhibitory concentrations (IC50) in micromoles per liter of the compounds of present invention obtained against the A. baumannnii strain ATCC17978.
On to `CN1C(=O)[C@H](CCCCN)NC(=O)[C@H](CCCN)NCc2cccnc2Sc2c(Cl)ccc(-c3ccc(P(=O)(O)O)cc3)c2CNC(=O)[C@@H]1Cc1c[nH]c2ccccc12` [Example 10.02, [4-[(11S,14S,17S)-14-(4-aminobutyl)-11-(3-aminopropyl)-25-chloro-17-(1H-indol-3-ylmethyl)-16-methyl-12,15,18-trioxo-2-thia-4,10,13,16,19-pentazatricyclo[19.4.0.03,8]pentacosa-1(21),3,5,7,22,24-hexaen-22-yl]phenyl]phosphonic acid], for which the IC50 was found to be 150 nM. Take `CN1C(=O)[C@H](CCCN)NC(=O)[C@H](CCN)NCc2cccnc2Sc2c(Cl)ccc(-c3ccc(S(=O)(=O)O)cc3)c2CNC(=O)[C@@H]1Cc1c[nH]c2ccccc12` [Example 13.00, 4-[(11S,14S,17S)-11-(2-Aminoethyl)-14-(3-aminopropyl)-25-chloro-17-(1H-indol-3-ylmethyl)-16-methyl-12,15,18-trioxo-2-thia-4,10,13,16,19-pentazatricyclo[19.4.0.03,8]pentacosa-1(25), 3(8),4,6,21,23-hexaen-22-yl]benzenesulfonic acid]: the IC50 was 20 nM. With `CN1C(=O)[C@H](CCCCN)NC(=O)[C@H](CCC(N)=O)NCc2cccnc2Sc2c(Cl)ccc(-c3ccc(P(=O)(O)O)cc3)c2CNC(=O)[C@@H]1Cc1c[nH]c2ccccc12` [Example 10.01, [4-[(11S,14S,17S)-14-(4-aminobutyl)-11-(3-amino-3-oxo-propyl)-25-chloro-17-(1H-indol-3-ylmethyl)-16-methyl-12,15,18-trioxo-2-thia-4,10,13,16,19-pentazatricyclo[19.4.0.03,8]pentacosa-1(21),3,5,7,22,24-hexaen-22-yl]phenyl]phosphonic acid] the figure was 3030 nM. The figure for `CN1C(=O)[C@H](CCCCN)NC(=O)[C@H](CCCN)NCc2cccnc2Sc2c(F)ccc(-c3ccc(S(=O)(=O)O)cc3)c2CNC(=O)[C@@H]1Cc1c[nH]c2ccccc12` [Example 7.00, 4-[(11S,14S,17S)-14-(4-Aminobutyl)-11-(3-aminopropyl)-25-fluoro-17-(1H-indol-3-ylmethyl)-16-methyl-12,15,18-trioxo-2-thia-4,10,13,16,19-pentazatricyclo[19.4.0.03,8]pentacosa-1(25), 3(8),4,6,21,23-hexaen-22-yl]benzenesulfonic acid] is 20 nM; for `COc1ccc(-c2ccc(S(=O)(=O)O)cc2)c2c1Sc1ncccc1CN[C@@H](CCCN)C(=O)N[C@@H](CCCCN)C(=O)N(C)[C@@H](Cc1c[nH]c3ccccc13)C(=O)NC2` [Example 15.00, 4-[(11S,14S,17S)-14-(4-Aminobutyl)-11-(3-aminopropyl)-17-(1H-indol-3-ylmethyl)-25-methoxy-16-methyl-12,15,18-trioxo-2-thia-4,10,13,16,19-pentazatricyclo[19.4.0.03,8]pentacosa-1(25), 3(8),4,6,21,23-hexaen-22-yl]benzenesulfonic acid] it is 80 nM.

For the compound `CN1C(=O)[C@H](CCCCN)NC(=O)[C@H](CCCN)NCc2cccnc2Sc2c(Cl)ccc(-c3ccc(S(=O)(=O)O)cc3)c2CNC(=O)[C@@H]1Cc1c[nH]c2ccccc12` [Example 1.00, 4-[(11S,14S,17S)-14-(4-Aminobutyl)-11-(3-aminopropyl)-25-chloro-17-(1H-indol-3-ylmethyl)-16-methyl-12,15,18-trioxo-2-thia-4,10,13,16,19-pentazatricyclo[19.4.0.03,8]pentacosa-1(25),3,5,7,21,23-hexaen-22-yl]benzenesulfonic acid], the IC50 was found to be 20 nM.

Take `CN1C(=O)[C@H](CCCCN)NC(=O)[C@H](CCCN)NCc2cccnc2Sc2c(Cl)ccc(-c3ccc(-c4nsc(=O)[nH]4)cc3)c2CNC(=O)[C@@H]1Cc1c[nH]c2ccccc12` [Example 3.00, (11S,14S,17S)-14-(4-Aminobutyl)-11-(3-aminopropyl)-25-chloro-17-(1H-indol-3-ylmethyl)-16-methyl-22-[4-(5-oxo-4H-1,2,4-thiadiazol-3-yl)phenyl]-2-thia-4,10,13,16,19-pentazatricyclo[19.4.0.03,8]pentacosa-1(25), 3(8),4,6,21,23-hexaene-12,15,18-trione]: the IC50 was 80 nM.
